According to article PMC12670164, “In vitro and clinical data demonstrate negligible risk of drug–drug interactions with opelconazole, a novel inhaled antifungal agent” (Journal of Antimicrobial Chemotherapy, 2025):

Experiments:
CYP3A4 = CYP3A4 (Homo sapiens, UniProt P08684); test: clinical
Experimental: The study documents were approved by an Independent Ethics Committee. Study participants provided written informed consent prior to any study procedures.
Screening occurred within 28 days prior to the first dosing day (Figure 1). […] On Days 1 and 15, participants received oral midazolam 7.5 mg and oral caffeine 180 mg together after food ingestion.
Morning doses of opelconazole on Day 2 and Day 15 were taken 30 min after food ingestion.
Primary PK parameters assessed for midazolam and its metabolites (1-OH-midazolam, 4-OH-midazolam), caffeine and opelconazole were Cmax and AUC, from time zero to t, where t is the time of the last quantifiable concentration (AUC(0−t); i.e., AUC(0−12) and AUC(0−24)). Secondary PK parameters were AUC(0−∞), Tmax, apparent t1/2 and accumulation ratio (RO) of opelconazole only.
For caffeine, midazolam and the metabolites of midazolam, the geometric mean ratio (GMR) of Day 15 estimates to those obtained on Day 1 was derived by fitting a linear mixed effect model with the log of the parameter as the response, visit as the fixed effect, and participant as the random effect.

CYP1A2 [1] = test: clinical; settings: both, human, plasma, po, 180 mg, probe caffeine
Excerpt: To adjust for any residual caffeine in plasma samples, the estimated contribution of residual, pre-dose caffeine was subtracted from the measured caffeine concentration to produce an ‘adjusted concentration.’ Residual caffeine concentrations were estimated from the baseline concentration and the measured elimination rate in individual participants.

CYP1A2 [2] = test: CYP induction, mRNA endpoint, cryopreserved human hepatocytes; settings: human, 72 h
Experimental: The potential for opelconazole to act as an inducer of CYP isoforms CYP1A2, CYP2B6 and CYP3A4 was assessed in vitro using an mRNA endpoint across three donors in cryopreserved human hepatocytes. A drug is interpreted as an inducer if: (1) it increases mRNA expression of a CYP enzyme in a concentration-dependent manner and (2) the fold change of CYP mRNA expression relative to vehicle control is ≥2-fold at the drug’s expected hepatic concentrations.[23]
A cytotoxicity assessment using MTT was performed in one of the three donors used for the induction studies prior to dosing.

[3] = Day 1, oral midazolam 7.5 mg without opelconazole
[4] = Day 15, oral midazolam 7.5 mg after 14 days inhaled opelconazole 14.8 mg twice daily
[5] = both, human, in vivo, po, 7.5 mg

Sequence of CYP3A4 (P08684 whole entry): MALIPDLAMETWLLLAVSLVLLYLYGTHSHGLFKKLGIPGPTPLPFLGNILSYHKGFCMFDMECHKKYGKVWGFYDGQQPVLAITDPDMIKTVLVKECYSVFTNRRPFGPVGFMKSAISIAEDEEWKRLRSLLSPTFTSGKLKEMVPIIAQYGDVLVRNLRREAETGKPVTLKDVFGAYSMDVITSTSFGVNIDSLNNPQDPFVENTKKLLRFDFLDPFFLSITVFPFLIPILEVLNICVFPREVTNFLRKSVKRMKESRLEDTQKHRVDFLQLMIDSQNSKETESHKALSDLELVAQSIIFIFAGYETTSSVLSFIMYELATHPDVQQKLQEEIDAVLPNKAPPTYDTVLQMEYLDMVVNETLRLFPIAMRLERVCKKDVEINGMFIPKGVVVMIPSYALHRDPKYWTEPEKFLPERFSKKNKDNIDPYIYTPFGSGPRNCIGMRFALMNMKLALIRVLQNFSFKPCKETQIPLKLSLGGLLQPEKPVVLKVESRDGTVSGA

In the case of OCc1ncc2n1-c1ccc(Cl)cc1C(c1ccccc1F)=NC2 [1-OH-Midazolam, 1-OH-midazolam], the “AUC(0–24h), geometric mean” value (CYP3A4; [3]) is reported as 72.8 ng·h/mL, the “Cmax, geometric mean” value (CYP3A4; [3]) is reported as 16.7 ng/mL and the “AUC(0–24h), geometric mean” value (CYP3A4; [4]) is reported as 60.9 ng·h/mL. The “Cmax, geometric mean” value (CYP3A4; [4]) was 13.4 ng/mL.

In the case of Cc1ncc2n1-c1ccc(Cl)cc1C(c1ccccc1F)=NC2O (stereo not shown) [4-OH-Midazolam, 4-OH-midazolam], the “AUC(0–24h), geometric mean” value (CYP3A4; [3]) is reported as 8.92 ng·h/mL, the “Cmax, geometric mean” value (CYP3A4; [3]) is reported as 1.97 ng/mL and the “AUC(0–24h), geometric mean” value (CYP3A4; [4]) is reported as 8.70 ng·h/mL. The “Cmax, geometric mean” value (CYP3A4; [4]) was 1.78 ng/mL.

Cn1c(=O)c2c(ncn2C)n(C)c1=O [Caffeine, caffeine] gave an AUC(0-t) (CYP1A2 [1]) of 33200 ng·h/mL and a Cmax (CYP1A2 [1]) of 3280 ng/mL.

For Cc1ncc2n1-c1ccc(Cl)cc1C(c1ccccc1F)=NC2 [Midazolam, midazolam, reference compound], the AUC(0-t) (CYP3A4; [5]) was 166 ng·h/mL and the Cmax (CYP3A4; [5]) was 35.1 ng/mL.

COc1ccc2[nH]c([S+]([O-])Cc3ncc(C)c(OC)c3C)nc2c1 (stereo not shown) [omeprazole, reference compound] was tested, and the “induction outcome of positive control relative to opelconazole” value (CYP1A2 [2]) was over 30 fold.
